From patent US20030049597A1, “Chimeric fluorescent enzymes and uses thereof” (priority 2001, published 2003)
Where two headings read alike, the source gives them in different places. Each block holds one compound with its values, some of them ahead of it.

Assays:
PgpGFP [1] = biological target: T1, PgpGFP (Homo sapiens, UniProt P08183); assay: Drug mediated microtubule depolymerization in PgpGFP transfected HeLa cells (anti-b-tubulin immunofluorescence); conditions: for effect of PgpGFP expression on sensitivity of cells to the drug: microtubule depolymerization, 30 min
T1 sequence (P08183 whole entry): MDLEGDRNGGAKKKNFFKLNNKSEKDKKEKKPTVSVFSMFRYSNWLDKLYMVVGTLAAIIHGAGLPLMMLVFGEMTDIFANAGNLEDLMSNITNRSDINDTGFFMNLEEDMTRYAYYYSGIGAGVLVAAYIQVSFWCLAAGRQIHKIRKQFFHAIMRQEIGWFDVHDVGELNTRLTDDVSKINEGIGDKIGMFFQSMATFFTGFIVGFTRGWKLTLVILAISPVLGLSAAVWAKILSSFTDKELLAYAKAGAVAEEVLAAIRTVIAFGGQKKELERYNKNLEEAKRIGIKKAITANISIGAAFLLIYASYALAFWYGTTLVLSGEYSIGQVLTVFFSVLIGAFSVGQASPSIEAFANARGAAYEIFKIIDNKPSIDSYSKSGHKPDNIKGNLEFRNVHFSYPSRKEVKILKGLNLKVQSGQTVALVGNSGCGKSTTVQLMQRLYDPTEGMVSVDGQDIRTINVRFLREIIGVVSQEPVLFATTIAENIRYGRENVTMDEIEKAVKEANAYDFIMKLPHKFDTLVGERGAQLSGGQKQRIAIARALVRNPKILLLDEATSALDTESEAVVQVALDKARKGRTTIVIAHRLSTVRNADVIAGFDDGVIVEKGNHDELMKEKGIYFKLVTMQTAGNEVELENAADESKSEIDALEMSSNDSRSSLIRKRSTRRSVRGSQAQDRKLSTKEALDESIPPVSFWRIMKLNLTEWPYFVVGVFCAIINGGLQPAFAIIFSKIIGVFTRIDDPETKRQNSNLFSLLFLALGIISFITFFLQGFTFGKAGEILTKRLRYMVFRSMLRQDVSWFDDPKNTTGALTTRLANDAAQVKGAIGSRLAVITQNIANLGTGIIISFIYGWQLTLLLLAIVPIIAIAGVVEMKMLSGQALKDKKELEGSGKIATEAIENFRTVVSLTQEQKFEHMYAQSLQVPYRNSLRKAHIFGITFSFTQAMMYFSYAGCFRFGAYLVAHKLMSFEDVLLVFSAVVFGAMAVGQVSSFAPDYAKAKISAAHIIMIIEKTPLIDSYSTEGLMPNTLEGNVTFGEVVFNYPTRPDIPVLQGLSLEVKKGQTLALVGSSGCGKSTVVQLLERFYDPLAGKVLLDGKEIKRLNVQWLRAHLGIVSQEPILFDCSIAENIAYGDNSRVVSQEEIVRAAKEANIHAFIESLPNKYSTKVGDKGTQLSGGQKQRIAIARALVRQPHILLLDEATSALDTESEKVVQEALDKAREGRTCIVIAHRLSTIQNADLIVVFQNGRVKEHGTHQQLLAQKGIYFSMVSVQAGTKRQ
Description: Cells were plated on 18 mm glass coverslips placed in 12-well dishes. […] For tubulin staining, cells were incubated for 30 minutes in the presence of indicated concentrations of vincristine (Calbiochem), colchicine (Calbiochem) or nocodazole (Sigma). Cells were then fixed, permeabilized, and labeled with 2 μg/ml Cy3-labeled anti-b-tubulin antibody, clone TUB 2.1 (Sigma).
We used a functional assay to quantify the effect of PgpGFP expression on the cytosolic activity of chemotherapeutics. Certain chemotherapeutics, such as colchicine, vincristine and nocodazole, depolymerize microtubules. The state of a cell's microtubules after being treated with these drugs is a measurement of the cellular concentration of the drug. Thus, we examined the microtubules using immunofluorescence against b-tubulin after drug treatment.

PgpGFP [2] = biological target: T1, PgpGFP
Description: (§1) HeLa cells (ATCC CCL-2) were cultured as per ATCC recommendations.
(§2) Epifluorescence microscopy was done on an inverted IX-70 microscope (Olympus America, Melville, N.Y.). […] Excitation was provided using a 150 Watt Xenon arc lamp (OptiQuip, Beaver Falls, Pa.). Excitation and emission filters were selected using filter wheels (Ludl Electronic Products, Hawthorne, N.Y.). All filters were from Chroma Technology (Brattleboro, Vt.).
(§3) Confocal microscopy was done on an upright Axiplan 2 microscope with a LSM 510 confocal attachment (Carl Zeiss, Thomwood, N.Y.). Excitation was provided an Argon/Krypton laser with lines at 488 nm and 568 nm and a Helium/Neon laser at 633 nm. The following laser lines and emission filters were used for confocal microscopy: GFP λex=488 nm, λem=500-530 nm, Texas Red, Cy3, TMRE: λex=568 nm, λem=580 nm LP, Fura Red, daunorubicin: λex=488 nm, λem=580 nm LP.
(§4) All fluorescent dyes were from Molecular Probes. Daunorubicin was from Calbiochem. Cells were incubated with the indicated drug or dye for the indicated amount of time in Opti-MEM without phenol red and with 10 mM Hepes (Life Technologies, Rockville, Md.) in a 5% CO2, 37° C. incubator prior to observation.

PgpGFP [3] = biological target: T1, PgpGFP; assay: Accumulation of fluorescent drugs and dyes in PgpGFP transfected HeLa cells (fluorescence microscopy); conditions: 30 min incubation, 1 μM daunorubicin (confocal), 200 nM Ho342 (epifluorescence)
Description: as §1, §2, §3, §4

PgpCFP = PgpCFP (Homo sapiens, UniProt P08183); assay: Accumulation of AM ester dyes in PgpCFP transfected cells (fluorescence microscopy); conditions: dyes marked (CFP)
Chain of PgpCFP (P08183 whole entry): as above

Compound: COc1cc2c(c(OC)c1OC)-c1ccc(OC)c(=O)cc1[C@@H](NC(C)=O)CC2 [Colchicine, colchicine]
Fold resistance (high level PgpGFP expression, drug mediated microtubule depolymerization) (PgpGFP [1]; high level PgpGFP expression): 5-25 fold
effect of PgpGFP expression on sensitivity of cells to the drug (PgpGFP [1]): decreased the sensitivity

Effects on fluorescence (effect of PgpGFP expression on accumulation of AM esters) (PgpGFP [2]): >10 Fold
Compound: CC(=O)OCOC(=O)CN(CC(=O)OCOC(C)=O)c1ccc(C)cc1OCCOc1cc2cc(C=C3NC(=S)NC3=O)oc2cc1N(CC(=O)OCOC(C)=O)CC(=O)OCOC(C)=O [FURA Red AM]

Effects on fluorescence (effect of PgpGFP expression on accumulation of AM esters) (PgpGFP [2]): >10 Fold
Compound: CC(=O)OCOC(=O)CN(CC(=O)OCOC(C)=O)c1ccc(C)cc1OCCOc1cc2cc(-c3ncc(C(=O)OCOC(C)=O)o3)oc2cc1N(CC(=O)OCOC(C)=O)CC(=O)OCOC(C)=O [FURA-2 AM]

Compound: CCOc1ccc(-c2nc3ccc(-c4nc5ccc(N6CCN(C)CC6)cc5[nH]4)cc3[nH]2)cc1 [Ho342, Hoechst 33342]
fluorescence lower in PgpGFP expressing cell compared to Pgp negative cell (PgpGFP [3]): 3 fold

Compound: COC(=O)Nc1nc2ccc(C(=O)c3cccs3)cc2[nH]1 [Nocodazole, nocodazole]
Fold resistance (high level PgpGFP expression, drug mediated microtubule depolymerization) (PgpGFP [1]; high level PgpGFP expression): None
effect of PgpGFP expression on sensitivity of cells to the drug (PgpGFP [1]): no effect

Fold resistance (high level PgpGFP expression, drug mediated microtubule depolymerization) (PgpGFP [1]): 25-125 fold
Compound: CC[C@]1(O)C[C@H]2CN(CCc3c([nH]c4ccccc34)[C@@](C(=O)OC)(c3cc4c(cc3OC)N(C=O)[C@H]3[C@@](O)(C(=O)OC)[C@H](OC(C)=O)[C@]5(CC)C=CCN6CC[C@]43[C@@H]65)C2)C1 [Vincristine, vincristine]

Compound: Calcein AM
Effects on fluorescence (effect of PgpCFP expression on accumulation of AM esters) (PgpCFP): >10 Fold
